Results from patent US11179348B2, “Combination comprising pterostilbene for the treatment of cancer” (FUNDACIÓN UNIVERSIDAD CATÓLICA DE VALENCIA SAN VICENTE …, priority 2015, dated 2021).

How the values were obtained:
[1] = system: AsPC-1 pancreatic cancer cells; test: Nrf2- and redox state-related enzyme activities and metabolites in AsPC-1 cells growing in vivo; parameters: species or system human; details: AsPC-1, in vivo +Pter, day 28
Procedure: To measure enzyme activity, isolated tumor cells were homogenized in 0.1 M phosphate buffer (pH 7.2) at 4° C. GCL and GSS activities were measured as described previously (Obrador, E. et al. Hepatology 35, 74-81 (2002)). GPX (selenium dependent) activity was measured as described by Flohé and Gunzler (Flohe, L. & Gunzler, W. A. Methods Enzymol 105, 114-121 (1984)) using H2O2 as a substrate. GSR activity was determined as described by Akerboom and Sies (Akerboom, T. P. et al, Bull Eur Physiopathol Respir 17 Suppl, 221-227 (1981)). GGT activity was measured as described previously (Obrador, E. et al. Hepatology 35, 74-81 (2002)). GST activity was measured using an assay kit from Sigma. TXNRD activity, defined by the concentration of sodium-lipoate (disulfide) reduced to dehydrolipoate (dithiol) per milligram protein, was measured as previously described (Javvadi, P. et al. Cancer Res 70, 1941-1950 (2010)). SOD activity was measured as described by Flohé and Otting (Flohe, L. & Otting, F. Methods Enzymol 105, 93-104 (1984).) using 2 mM cyanide in the assay medium to distinguish mangano-type enzyme (SOD2) from the cuprozinc type (SOD1). CAT activity was analyzed as described by Aebi (Aebi, H. Methods Enzymol 105, 121-126 (1984)). NOX activity was measured by chemiluminescence following the methodology of Wind et al. (Wind, S. et al. Comparative pharmacology of chemically distinct NADPH oxidase inhibitors. Br J Pharmacol 161, 885-898 (2010)). Protein concentration was determined with the Pierce BCA protein assay (Fisher Scientific, Waltham, Mass.). […]
(§1) GSH, GSSG, NADP^+ and NADPH Determination.
(§2) GSH and GSSG were determined, following procedures previously described (Obrador, E. et al. PLoS One 9, e96466 (2014)), by LC/MS using the same equipment described above for pterostilbene determination. Cell processing was performed according to published methodology, where rapid N-ethylmaleimide derivatization was used to prevent GSH auto-oxidation (Asensi, M. et al. Anal Biochem 217, 323-328 (1994)). NADP^+ and NADPH were quantitated using an assay kit from Sigma (St. Louis, Mo.).

PC-3 cells = test: GSH levels and glutathione- and oxidative stress-related enzyme activities in PC-3 cells growing in vivo; parameters: species or system human; details: PC-3, in vivo Pter, day 21
Procedure: To measure enzyme activity, isolated tumor cells were homogenized in 0.1 M phosphate buffer (pH 7.2) at 4° C. GCL and GSS activities were measured as described previously (Obrador, E. et al. Hepatology 35, 74-81 (2002)). GPX (selenium dependent) activity was measured as described by Flohé and Gunzler (Flohe, L. & Gunzler, W. A. Methods Enzymol 105, 114-121 (1984)) using H2O2 as a substrate. GSR activity was determined as described by Akerboom and Sies (Akerboom, T. P. et al, Bull Eur Physiopathol Respir 17 Suppl, 221-227 (1981)). GGT activity was measured as described previously (Obrador, E. et al. Hepatology 35, 74-81 (2002)). GST activity was measured using an assay kit from Sigma. TXNRD activity, defined by the concentration of sodium-lipoate (disulfide) reduced to dehydrolipoate (dithiol) per milligram protein, was measured as previously described (Javvadi, P. et al. Cancer Res 70, 1941-1950 (2010)). SOD activity was measured as described by Flohé and Otting (Flohe, L. & Otting, F. Methods Enzymol 105, 93-104 (1984).) using 2 mM cyanide in the assay medium to distinguish mangano-type enzyme (SOD2) from the cuprozinc type (SOD1). CAT activity was analyzed as described by Aebi (Aebi, H. Methods Enzymol 105, 121-126 (1984)). NOX activity was measured by chemiluminescence following the methodology of Wind et al. (Wind, S. et al. Comparative pharmacology of chemically distinct NADPH oxidase inhibitors. Br J Pharmacol 161, 885-898 (2010)). Protein concentration was determined with the Pierce BCA protein assay (Fisher Scientific, Waltham, Mass.).
as §1, §2
Isolation of Tumor Cells from Mouse Xenografts Using Enzymatic Digestion and a double Ficoll gradient.
To maximize the amount of isolated cells, avoiding the use of RFP-transfected cells and subsequent laser microdissection, an alternative methodology was set up. To maximize cell yield and viability the following combination of enzymes was used: collagenase III (200 U/ml; Sigma-Aldrich), DNase I (200 U/ml; Sigma-Aldrich) and trypsin (5 mg/ml; Invitrogen), and a non-enzymatic dissociation buffer (NEDB, Invitrogen). Briefly, mice were killed, and tumors were removed (avoiding skin, muscle and fat) into cold culture media and processed immediately. The tumors were minced into 1-3 mm fragments, which were then incubated with the dissociation solution (see above) for 30 min at 37° C. The tumor fragments were mixed up and down every 10 min using a […] micropipette with a tip cut to a diameter adapted to tissue fragment size. After each incubation period, the fragments were filtered through a […] nylon mesh cell strainer (BD Biosciences, San Diego, Calif., USA). The released cells were centrifuged at 1200 r.p.m. for 2 min and stored in cold CO2-independent medium with 30% FCS at […]. Fresh dissociation solution was added to the remaining tissue fragments for 30 min. Dissociation was stopped when no additional cells were released. The fragments were pushed through a sieve and all cells from all incubation periods were pooled and counted.
The dissociated cells were layered onto a double Ficoll gradient (Histopaque; Sigma-Aldrich; densities 1.077 and 1.119) and spun at 700 g for 30 min at room temperature. Cells removed from both interfaces were pooled and washed two times in CO2-independent medium and stored at 4° C. Debris and red blood cell elimination was improved with the dual-density gradient. […]

COc1cc(/C=C/c2ccc(O)cc2)cc(OC)c1 [Pter, trans-3,5-dimethoxy-4′-hydroxystilbene]
CAT [1]: 1.2 ± 0.3 mU/10^6 cells
G6PDH [1]: 317 ± 84 mU/10^6 cells
GCL [1]: 85 ± 27 mU/10^6 cells
GGT [1]: 27.5 ± 7.4 mU/10^6 cells
GPX [1]: 15.0 ± 2.6 mU/10^6 cells
GSH [1]: 10.4 ± 2.0 nmol/10^6 cells
GSH/GSSG [1]: 35 ± 6
GSR [1]: 5.5 ± 1.2 mU/10^6 cells
GSS [1]: 12.4 ± 2.7 mU/10^6 cells
GSSG [1]: 0.3 ± 0.1 nmol/10^6 cells
GST [1]: 8.0 ± 1.5 mU/10^6 cells
H2O2 [1]: 1.4 ± 0.3 nmol/10^6 cells × min
IDH [1]: 1.0 ± 0.3 U/10^6 cells
ME [1]: 55 ± 15 mU/10^6 cells
NADPH [1]: 0.05 ± 0.02 nmol/mg prot
NADPH/NADP^+ [1]: 1.7 ± 0.4
NADP^+ [1]: 0.03 ± 0.01 nmol/mg prot
NOX [1]: 115 ± 33 R.L.U./10^6 cells
O2′− [1]: 8.4 ± 2.4 ΔFL1, a.u.
SOD1 [1]: 0.2 ± 0.05 U/10^6 cells
SOD2 [1]: 0.05 ± 0.02 U/10^6 cells
TXN [1]: 0.3 ± 0.15 μg/10^6 cells
TXNRD [1]: 0.7 ± 0.2 U/10^6 cells
CAT (PC-3 cells): 0.3 ± 0.1 mU/10^6 cells
GCL (PC-3 cells): 27 ± 9 mU/10^6 cells
GSH (PC-3 cells): 2.4 ± 1.1 nmol/10^6 cells
GSS (PC-3 cells): 2.7 ± 0.7 mU/10^6 cells
GSSG (PC-3 cells): 0.05 ± 0.02 nmol/10^6 cells
SOD1 (PC-3 cells): 0.05 ± 0.01 U/10^6 cells
SOD2 (PC-3 cells): 0.01 ± 0.005 U/10^6 cells
